Literature values in patent publication US7612202B2, “Process for preparing temozolomide” (Chemagis, Ltd., priority 2005, dated 2009).
Entries after “also recorded” stand apart in the source; their conditions may differ.

Key:
[1] = administered Temozolomide dose

Cn1nnc2c(C(N)=O)ncn2c1=O [Temozolomide, 8-carbamoyl-3-methyl-imidazo[5,1-d]-1,2,3,5-tetrazin-4(3H)-one]
stability at acidic pH (aqueous buffers, pH<5): stable
stability at pH>7 (aqueous buffers, pH>7): labile; also recorded: rapidly decomposes to MTIC
in vitro half-life (phosphate buffer at 37° C. and pH 7.4): 1.9 h
percentage of administered dose metabolized to TMA [1]: about 2%
